In patent US7109296B2, “Human 5-HT3-C protein” (Ortho-McNeil Pharmaceutical, Inc., priority 1999, dated 2006):

What was measured:
Assay type in all cases: cell-based
[1] = biological target: T1, human 5-HT3-C (Homo sapiens, UniProt Q8WXA8); experiment: Two-electrode voltage clamp, Xenopus oocytes injected with 5-HT3-C cRNA alone; conditions: oocytes injected with 33.5 ng 5-HT3-C
T1 construct: Characterization of the Function of Protein Encoded by p5HT3CR in Xenopus oocvtes; expressed in transfected cells; host or cells: Xenopus laevis oocytes injected with in vitro transcribed cRNA (pGEM HE)
T1 sequence (Q8WXA8 28-447): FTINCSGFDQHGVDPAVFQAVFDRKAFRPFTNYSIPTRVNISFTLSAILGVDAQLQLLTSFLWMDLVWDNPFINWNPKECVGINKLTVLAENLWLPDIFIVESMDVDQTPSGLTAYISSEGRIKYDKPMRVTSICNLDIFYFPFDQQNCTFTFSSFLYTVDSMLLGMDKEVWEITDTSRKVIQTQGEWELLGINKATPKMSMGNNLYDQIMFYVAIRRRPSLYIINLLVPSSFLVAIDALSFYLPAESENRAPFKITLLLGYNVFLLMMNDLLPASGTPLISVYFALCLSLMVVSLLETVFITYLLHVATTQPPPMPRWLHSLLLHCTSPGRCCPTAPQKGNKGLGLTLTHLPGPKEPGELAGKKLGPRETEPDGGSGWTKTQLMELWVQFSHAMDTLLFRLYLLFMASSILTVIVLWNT
Method: (§1) Characterization of the Function of Protein Encoded by p5HT3CR in Xenopus oocvtes Xenopus laevis oocytes were prepared and injected using standard methods previously described and known in the art (Fraser et al., 1993). Ovarian lobes from adult female Xenopus laevis (Nasco, Fort Atkinson, Wis.) were teased apart, rinsed several times in nominally Ca-free saline containing (in mM): NaCl 82.5, KCl 2.5, MgCl2 1, HEPES 5, adjusted to pH 7.0 with NaOH(OR-2), and gently shaken in OR-2 containing 0.2% collagenase Type 1 (ICN Biomedicals, Aurora, Ohio) for 2–5 hours. When approximately 50% of the follicular layers were removed, Stage V and VI oocytes were selected and rinsed in media consisting of 75% OR-2 and 25% ND-96. The ND-96 contained (in mM): NaCl 100, KCl 2, MgCl2 1, CaCl2 1.8, HEPES 5, Na pyruvate 2.5, gentamicin (50 ug/ml), adjusted to pH 7.0 with NaOH. […] For in vitro transcription, pGEM HE (Liman et al., 1992) containing human 5-HT3-A (Genbank D49394) or 5-HT3-C cDNA was linearized with NheI and transcribed with T7 RNA polymerase (Stratagene) in the presence of the cap analog m7G(5′)ppp(5′)G. The synthesized cRNA was purified with a Sephadex G-50 spin column. […] Control oocytes were injected with 50 nl of water. Oocytes were incubated for 2–14 days in ND-96 before analysis for expression of the human 5-HT3-C. Incubations and collagenase digestion were carried out at room temperature. Injected oocytes were maintained in 48 well cell culture clusters (Costar, Cambridge, Mass.) at 18° C. Whole cell agonist-induced currents were measured 1–14 days after injection with a conventional two-electrode voltage clamp (GeneClamp500, Axon Instruments, Foster City, Calif.) using standard methods previously described and known in the art (Dascal, 1987). The microelectrodes were filled with 3 M KCl, which had resistances of 1 and 2 MΩ. Cells were continuously perfused with ND96 at 10 ml/min at room temperature unless indicated. Membrane voltage was clamped at −70 mV unless indicated.

[2] = biological target: T2, long form of human 5-HT3-A together with 5-HT3-C (Homo sapiens, UniProt P46098+Q8WXA8); experiment: Two-electrode voltage clamp, oocytes co-injected with long form of human 5-HT3-A and 5-HT3-C; conditions: 100 μM; n=2
T2 construct: Characterization of the Function of Protein Encoded by p5HT3CR in Xenopus oocvtes; expressed in transfected cells; host or cells: Xenopus laevis oocytes co-injected with cRNAs
T2 sequence (P46098 24-510 isoform P46098-2): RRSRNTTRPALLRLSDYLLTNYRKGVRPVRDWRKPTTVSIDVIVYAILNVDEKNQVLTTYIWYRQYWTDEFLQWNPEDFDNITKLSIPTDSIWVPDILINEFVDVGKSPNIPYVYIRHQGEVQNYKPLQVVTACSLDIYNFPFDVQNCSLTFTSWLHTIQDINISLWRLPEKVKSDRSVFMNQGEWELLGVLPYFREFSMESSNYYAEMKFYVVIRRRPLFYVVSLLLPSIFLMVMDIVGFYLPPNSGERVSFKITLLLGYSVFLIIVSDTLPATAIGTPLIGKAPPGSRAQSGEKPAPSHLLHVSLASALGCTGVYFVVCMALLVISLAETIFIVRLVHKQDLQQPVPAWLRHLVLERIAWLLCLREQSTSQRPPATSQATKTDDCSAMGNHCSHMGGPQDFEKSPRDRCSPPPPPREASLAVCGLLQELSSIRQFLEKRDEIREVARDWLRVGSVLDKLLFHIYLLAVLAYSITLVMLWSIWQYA
T2 sequence (Q8WXA8 28-447): T1 sequence (Q8WXA8 28-447)
Method: Characterization of the Function of Protein Encoded by p5HT3CR in Xenopus oocvtes Xenopus laevis oocytes were prepared and injected using standard methods previously described and known in the art (Fraser et al., 1993). Ovarian lobes from adult female Xenopus laevis (Nasco, Fort Atkinson, Wis.) were teased apart, rinsed several times in nominally Ca-free saline containing (in mM): NaCl 82.5, KCl 2.5, MgCl2 1, HEPES 5, adjusted to pH 7.0 with NaOH(OR-2), and gently shaken in OR-2 containing 0.2% collagenase Type 1 (ICN Biomedicals, Aurora, Ohio) for 2–5 hours. When approximately 50% of the follicular layers were removed, Stage V and VI oocytes were selected and rinsed in media consisting of 75% OR-2 and 25% ND-96. The ND-96 contained (in mM): NaCl 100, KCl 2, MgCl2 1, CaCl2 1.8, HEPES 5, Na pyruvate 2.5, gentamicin (50 ug/ml), adjusted to pH 7.0 with NaOH. […] Whole cell agonist-induced currents were measured 1–14 days after injection with a conventional two-electrode voltage clamp (GeneClamp500, Axon Instruments, Foster City, Calif.) using standard methods previously described and known in the art (Dascal, 1987). […]

[3] = biological target: T3, 5-HT3-C together with nicotinic ACh receptor a6 subunit (Homo sapiens, UniProt Q15825+Q8WXA8); experiment: Two-electrode voltage clamp, oocytes injected with 5-HT3-C together with nicotinic ACh receptor α6 subunit; conditions: 10 μM; eight days after injection; 5-HT3-C 0.67 ng, a6 1 ng/oocyte
T3 construct: Characterization of the Function of Protein Encoded by p5HT3CR in Xenopus oocvtes; expressed in transfected cells; host or cells: Xenopus laevis oocytes injected with cRNA
T3 sequence (Q15825 26-494, one chain of several): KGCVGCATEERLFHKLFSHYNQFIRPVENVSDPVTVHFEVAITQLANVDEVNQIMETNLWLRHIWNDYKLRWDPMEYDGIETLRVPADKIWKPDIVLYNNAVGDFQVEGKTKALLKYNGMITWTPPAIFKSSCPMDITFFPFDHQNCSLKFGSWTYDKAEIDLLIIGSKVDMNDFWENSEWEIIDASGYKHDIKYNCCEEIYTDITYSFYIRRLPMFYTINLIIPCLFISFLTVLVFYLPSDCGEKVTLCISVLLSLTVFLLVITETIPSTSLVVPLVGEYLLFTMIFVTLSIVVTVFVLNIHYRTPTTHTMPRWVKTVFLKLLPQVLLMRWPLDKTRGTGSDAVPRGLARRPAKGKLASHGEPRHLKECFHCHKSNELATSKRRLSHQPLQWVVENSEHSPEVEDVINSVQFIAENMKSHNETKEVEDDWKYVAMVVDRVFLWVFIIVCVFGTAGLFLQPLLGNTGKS
Method: Characterization of the Function of Protein Encoded by p5HT3CR in Xenopus oocvtes Xenopus laevis oocytes were prepared and injected using standard methods previously described and known in the art (Fraser et al., 1993). Ovarian lobes from adult female Xenopus laevis (Nasco, Fort Atkinson, Wis.) were teased apart, rinsed several times in nominally Ca-free saline containing (in mM): NaCl 82.5, KCl 2.5, MgCl2 1, HEPES 5, adjusted to pH 7.0 with NaOH(OR-2), and gently shaken in OR-2 containing 0.2% collagenase Type 1 (ICN Biomedicals, Aurora, Ohio) for 2–5 hours. When approximately 50% of the follicular layers were removed, Stage V and VI oocytes were selected and rinsed in media consisting of 75% OR-2 and 25% ND-96. The ND-96 contained (in mM): NaCl 100, KCl 2, MgCl2 1, CaCl2 1.8, HEPES 5, Na pyruvate 2.5, gentamicin (50 ug/ml), adjusted to pH 7.0 with NaOH. […] For in vitro transcription, pGEM HE (Liman et al., 1992) containing human 5-HT3-A (Genbank D49394) or 5-HT3-C cDNA was linearized with NheI and transcribed with T7 RNA polymerase (Stratagene) in the presence of the cap analog m7G(5′)ppp(5′)G. The synthesized cRNA was purified with a Sephadex G-50 spin column. Oocytes were injected with 50 nl of the human serotonin 5-HT3-A receptor with or without the 5-HT3-C RNA (0.02 and 0.002–0.2 ng each) or other channel or receptor subunit. Control oocytes were injected with 50 nl of water. Oocytes were incubated for 2–14 days in ND-96 before analysis for expression of the human 5-HT3-C. Incubations and collagenase digestion were carried out at room temperature. Injected oocytes were maintained in 48 well cell culture clusters (Costar, Cambridge, Mass.) at 18° C. Whole cell agonist-induced currents were measured 1–14 days after injection with a conventional two-electrode voltage clamp (GeneClamp500, Axon Instruments, Foster City, Calif.) using standard methods previously described and known in the art (Dascal, 1987). The microelectrodes were filled with 3 M KCl, which had resistances of 1 and 2 MΩ. […]

[4] = biological target: T4, nicotinic ACh α3β4 receptors (Homo sapiens, UniProt P30926+P32297); experiment: Two-electrode voltage clamp, oocytes expressing nicotinic ACh α3β4 receptors
T4 construct: expressed in transfected cells; host or cells: Xenopus laevis oocytes injected with cRNA
T4 sequence (P32297 32-505): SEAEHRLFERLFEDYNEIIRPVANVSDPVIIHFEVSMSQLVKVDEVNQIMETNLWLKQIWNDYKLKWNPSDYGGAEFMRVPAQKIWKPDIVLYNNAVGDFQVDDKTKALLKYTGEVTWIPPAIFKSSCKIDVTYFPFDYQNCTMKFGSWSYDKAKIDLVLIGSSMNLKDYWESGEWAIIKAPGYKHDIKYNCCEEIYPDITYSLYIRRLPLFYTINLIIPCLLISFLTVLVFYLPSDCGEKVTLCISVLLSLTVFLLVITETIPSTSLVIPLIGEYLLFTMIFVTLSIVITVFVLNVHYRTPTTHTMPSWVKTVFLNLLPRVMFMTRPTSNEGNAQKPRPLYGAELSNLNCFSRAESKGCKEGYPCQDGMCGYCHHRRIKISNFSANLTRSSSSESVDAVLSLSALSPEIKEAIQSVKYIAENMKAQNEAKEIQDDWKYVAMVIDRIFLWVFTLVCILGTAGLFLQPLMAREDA
T4 sequence (P30926 22-498): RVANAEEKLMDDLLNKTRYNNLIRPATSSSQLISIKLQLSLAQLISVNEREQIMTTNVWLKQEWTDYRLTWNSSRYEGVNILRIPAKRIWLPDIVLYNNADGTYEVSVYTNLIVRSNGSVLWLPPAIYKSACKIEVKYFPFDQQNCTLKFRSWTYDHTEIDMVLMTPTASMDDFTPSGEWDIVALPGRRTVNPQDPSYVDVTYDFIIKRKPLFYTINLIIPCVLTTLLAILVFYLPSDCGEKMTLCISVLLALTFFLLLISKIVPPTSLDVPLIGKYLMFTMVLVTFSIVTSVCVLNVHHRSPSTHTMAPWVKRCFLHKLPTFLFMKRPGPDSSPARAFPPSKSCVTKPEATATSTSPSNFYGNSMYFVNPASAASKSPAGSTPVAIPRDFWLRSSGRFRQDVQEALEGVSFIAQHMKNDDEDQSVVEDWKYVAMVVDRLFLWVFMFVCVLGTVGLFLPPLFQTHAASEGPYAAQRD

[5] = biological target: T5, α3β4 receptors together with 5-HT3-C (Homo sapiens, UniProt P30926+P32297); experiment: Two-electrode voltage clamp, oocytes expressing nicotinic ACh α3β4 receptors together with 5-HT3-C
T5 construct: expressed in transfected cells; host or cells: Xenopus laevis oocytes co-injected with cRNAs
T5 sequence (P32297 32-505): as the sequence (P32297 32-505) above
T5 sequence (P30926 22-498): as the sequence (P30926 22-498) above

[6] = biological target: T6, 5-HT3-B and 5-HT3-C (Homo sapiens, UniProt O95264+Q8WXA8); experiment: Two-electrode voltage clamp, oocytes co-injected with 5-HT3-B and 5-HT3-C; conditions: 10 μM; 5-HT3-B 3.3 ng, 5-HT3-C 3.35 ng/oocyte
T6 construct: Characterization of the Function of Protein Encoded by p5HT3CR in Xenopus oocvtes; expressed in transfected cells; host or cells: Xenopus laevis oocytes co-injected with cRNAs
T6 sequence (O95264 22-441): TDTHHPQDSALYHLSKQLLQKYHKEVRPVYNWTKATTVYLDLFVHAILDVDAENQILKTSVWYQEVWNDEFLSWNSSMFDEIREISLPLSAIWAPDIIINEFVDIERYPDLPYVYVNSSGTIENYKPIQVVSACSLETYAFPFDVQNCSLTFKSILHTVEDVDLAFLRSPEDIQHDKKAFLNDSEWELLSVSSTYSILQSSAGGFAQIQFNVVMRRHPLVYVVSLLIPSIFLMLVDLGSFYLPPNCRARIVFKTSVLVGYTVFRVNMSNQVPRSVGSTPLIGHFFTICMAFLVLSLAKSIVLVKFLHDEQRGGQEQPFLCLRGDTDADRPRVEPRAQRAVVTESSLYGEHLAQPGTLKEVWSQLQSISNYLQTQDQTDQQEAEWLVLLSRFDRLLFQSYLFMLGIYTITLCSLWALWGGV
T6 sequence (Q8WXA8 28-447): T1 sequence (Q8WXA8 28-447)
Method: as §1

effect of agonist (agonist-induced current) ([1]; 100 μM) | effect of agonist (agonist-induced current) ([1]; 500 μM) | sensitivity of oocytes to agonist [2] | Compound | responsiveness of oocytes to agonist [3] | Peak currents [4] | Peak currents [5] | effect of 5-HT3-C co-injection on epibatidine-activated currents [5] | effect of 5-HT3-C on t80, time to peak and degree of desensitization to a second epibatidine stimulus [5] | responsiveness of oocytes to agonist [6]
no effect | no effect | insensitive | NC(N)=NC(N)=Nc1ccccc1 [1-PBG] |  |  |  |  |  | 
 |  |  | Clc1ccc(C2CC3CCC2N3)cn1 (stereo not drawn) [epibatidine] | not responsive | −6.93+/−1.45 nA | 6.49+/−0.69 nA | no effect | no effect | unresponsive
